Results reported in ChEMBL document CHEMBL3612010, “Deprotometalation-iodolysis and computed CH acidity of 1,2,3- and 1,2,4-triazoles. Application to the synthesis of resveratrol analogues” (Bioorg Med Chem, 2015).
In brackets after ≈: the same amount, converted by molar mass.

Tests used:
Escherichia coli = assay: Antibacterial activity against Escherichia coli ATCC 25922 after 24 hrs by broth microdilution method; assay type: functional; settings: ATCC 25922, 24 h
Staphylococcus aureus [1] = assay: Antibacterial activity against Staphylococcus aureus ATCC 25923 after 24 hrs by broth microdilution method; assay type: functional; settings: ATCC 25923, 24 h
Staphylococcus aureus [2] = assay: Antibacterial activity against Staphylococcus aureus ATCC 29213 after 24 hrs by broth microdilution method; assay type: functional; settings: ATCC 29213, 24 h
Enterococcus faecalis = assay: Antibacterial activity against Enterococcus faecalis ATCC 29212 after 24 hrs by broth microdilution method; assay type: functional; settings: ATCC 29212, 24 h
Pseudomonas aeruginosa = assay: Antibacterial activity against Pseudomonas aeruginosa […] after 24 hrs by broth microdilution method; assay type: functional
MDA-MB-231 [3] = assay: Antiproliferative activity against human MDA-MB-231 cells assessed as cell survival at 100 uM after 24 hrs by MTT assay relative to control; assay type: functional; settings: MDA-MB-231, 24 h, read-out: Survival
MDA-MB-231 [4] = assay: Antiproliferative activity against human MDA-MB-231 cells assessed as cell survival at 100 uM after 48 hrs by MTT assay relative to control; assay type: functional; settings: MDA-MB-231, 48 h, read-out: Survival
MDA-MB-231 [5] = assay: Antiproliferative activity human MDA-MB-231 cells assessed as cell survival after 48 hrs by MTT assay; assay type: functional, cell-based; settings: MDA-MB-231, 48 h
MDA-MB-231 [6] = assay: Antiproliferative activity against human MDA-MB-231 cells assessed as cell survival at 25 uM after 48 hrs by MTT assay relative to control; assay type: functional; settings: MDA-MB-231, 48 h, read-out: Survival

| SMILES | MIC (Escherichia coli) [µg/mL] | MIC (Staphylococcus aureus [1]) [µg/mL] | MIC (Staphylococcus aureus [2]) [µg/mL] | MIC (Enterococcus faecalis) [µg/mL] | MIC (Pseudomonas aeruginosa) [µg/mL] | viability at 100 µM (MDA-MB-231 [3]) [%] | viability at 100 µM (MDA-MB-231 [4]) [%] | IC50 (MDA-MB-231 [5]) [µM] | viability at 25 µM (MDA-MB-231 [6]) [%] |
| --- | --- | --- | --- | --- | --- | --- | --- | --- | --- |
| Nc1ccc(-c2cnn(-c3ccccc3)n2)cc1 | 128 (≈ 542 µM) | 256 (≈ 1080 µM) | 256 (≈ 1080 µM) | 128 (≈ 542 µM) | 64 (≈ 271 µM) | 66 | – | – | – |
| CN[C@H](CC(C)C)C(=O)N[C@H]1C(=O)N[C@@H](CC(N)=O)C(=O)N[C@H]2C(=O)N[C@H]3C(=O)N[C@H](C(=O)N[C@H](C(=O)O)c4cc(O)cc(O)c4-c4cc3ccc4O)[C@H](O)c3ccc(c(Cl)c3)Oc3cc2cc(c3O[C@@H]2O[C@H](CO)[C@@H](O)[C@H](O)[C@H]2O[C@H]2C[C@](C)(N)[C@H](O)[C@H](C)O2)Oc2ccc(cc2Cl)[C@H]1O [VANCOMYCIN] | – | – | – | < 1 | – | – | – | – | – |
| Oc1ccc(/C=C/c2cc(O)cc(O)c2)cc1 [RESVERATROL] | – | – | – | – | – | 93.4 | 60.3 | 130 | – |
| COc1ccc(OC)c(-c2cnn(-c3ccccc3)n2)c1 | 128 (≈ 455 µM) | 256 (≈ 910 µM) | 128 (≈ 455 µM) | 128 (≈ 455 µM) | 128 (≈ 455 µM) | 94 | – | – | – |
| FC(F)(F)Oc1ccc(-n2nccn2)cc1 | 256 (≈ 1120 µM) | 256 (≈ 1120 µM) | 256 (≈ 1120 µM) | 128 (≈ 559 µM) | 128 (≈ 559 µM) | 58.5 | 24 | 67 | – |
| c1ccc(-c2cnn(-c3ccccc3-c3ccccc3)n2)cc1 | 256 (≈ 861 µM) | 256 (≈ 861 µM) | 128 (≈ 430 µM) | 128 (≈ 430 µM) | 128 (≈ 430 µM) | 49 | 23 | 52 | – |
| Oc1ccc(-c2cnn(-c3ccccc3)n2)cc1 | 128 (≈ 539 µM) | 128 (≈ 539 µM) | 64 (≈ 270 µM) | 64 (≈ 270 µM) | 128 (≈ 539 µM) | 102 | – | – | – |
| Cc1onc(-c2ccccc2)c1C(=O)N[C@@H]1C(=O)N2[C@@H]1SC(C)(C)[C@@H]2C(=O)O [OXACILLIN] | – | < 1 | < 1 | – | – | – | – | – | – |
| Clc1cccc(-c2cnn(-c3ccccc3-c3cccc(Cl)c3)n2)c1 | 128 (≈ 349 µM) | 128 (≈ 349 µM) | 256 (≈ 699 µM) | 256 (≈ 699 µM) | 128 (≈ 349 µM) | 40.5 | 11 | 45.5 | – |
| COc1ccc(-c2cnn(-c3ccccc3-c3ccc(OC)cc3)n2)cc1 | 256 (≈ 716 µM) | 256 (≈ 716 µM) | 256 (≈ 716 µM) | 256 (≈ 716 µM) | 256 (≈ 716 µM) | 75 | – | – | – |
| c1ccc(-c2cnn(-c3ccccc3)n2)cc1 | 128 (≈ 578 µM) | 256 (≈ 1160 µM) | > 256 | 128 (≈ 578 µM) | 128 (≈ 578 µM) | 85.5 | – | – | – |
| Nc1ccc(-c2cnn(-c3ccccc3-c3ccc(N)cc3)n2)cc1 | 128 (≈ 391 µM) | 64 (≈ 195 µM) | 128 (≈ 391 µM) | 128 (≈ 391 µM) | 128 (≈ 391 µM) | 44 | 2.5 | 17.5 | 22 |
| CC1(C)S[C@@H]2[C@H](NC(=O)[C@H](C(=O)O)c3ccsc3)C(=O)N2[C@H]1C(=O)O [TICARCILLIN] | – | – | – | – | 8 (≈ 20.8 µM) | – | – | – | – |
| Oc1ccc(-c2cnn(-c3ccccc3-c3ccc(O)cc3)n2)cc1 | 128 (≈ 389 µM) | 128 (≈ 389 µM) | 128 (≈ 389 µM) | 128 (≈ 389 µM) | 64 (≈ 194 µM) | 54.5 | 11 | 40 | – |
| CC1(C)S[C@@H]2[C@H](NC(=O)[C@H](N)c3ccc(O)cc3)C(=O)N2[C@H]1C(=O)O [AMOXICILLIN] | 4 (≈ 10.9 µM) | – | – | – | – | – | – | – | – |
